The test relates to human mammary carcinoma MX-1 cells. Description: In vitro drug combination (median-effect / combination index, DRI) against MX-1 cell growth (Tables 5, 5A). In kind it is cell-based. The protocol: The data in Tables 2X, 3A-E, 4, 5, and 6 were obtained using the cell counting kit-8 (CCK-8) tetrazolium assay in a 96-well microplate. Five to seven concentrations of each compound in triplicate were used, and the IC50 values were determined by CompuSyn software automation (Chou T C. and Martin N. ComboSyn, Inc., 2006) based on the median-effect equation and plot (Chou T C. J. Theor. Biol. 59:235-276, 1976; Chou T C. Pharmacol. Rev. 58: 621-681, 2006). […] The r value defines the correlation coefficient of the median-effect plot which signifies the conformity to the mass-action law principle (Chou T C. J. Theor. Biol. 59:235-276, 1976; Chou T C. Pharmacol. Rev. 58:621-681, 2006). These parameters were determined by CompuSyn simulation (available at http://www.combosyn.com).
Efficacy of panaxytriol in combination with Fludelone (an illustrative tubulin-binding anticancer agent) was measured according to procedures described in more detail by Chou et al. (1984) Adv. Enz. Regul., 22:27-55, Chou et al. (1994) Nat'l Cancer Inst., 86:1517-1524, and Chou (2006) Pharmacological Reviews, […]:621-681. Software packages used for data analyses were CalcuSyn for Windows (Chou and Hayball., Multiple-drug dose effect analyzer and manual, Biosoft, Cambridge Place, Cambridge, U.K (1996)) and CompuSyn for Drug Combinations (Chou and Martin, Software for determination of synergism and antagonism and determination of IC50, ED50 and LD50, ComboSyn Inc., Paramus, N.J. (2005)). The entire contents of each of the above references are incorporated by reference in their entireties. […] DRI quantitates synergy as how many fold less of a dose is required to obtain a given level of effect for a combination of drugs versus the same effect for an individual component of the combination.

Where [1] appears, read: Table 5, fold dose reduction allowed in the Panaxytriol + Fludelone combination.

Experimental findings from patent US8859615B2, “Compounds, compositions and methods for reducing toxicity and treating or preventing diseases” (priority 2008, dated 2014) are described below.

For orientation: IC50 means the midpoint of a concentration-inhibition curve. `C=C[C@@H](O)C#CC#CC[C@@H](O)[C@H](O)CCCCCCC` [panaxytriol]: under “Homo sapiens, MX1, 72 h, read-out: Dose-effect parameter Dm (IC50)”, the IC50 came to 3.19 µM. Besides, under setting [1], the “Dose-Reduction Index (DRI) at IC50” value was 2.66, the “Dose-Reduction Index (DRI) at IC75” value is reported as 2.12, the “Dose-Reduction Index (DRI) at IC90” value was determined as 1.70 and the “Dose-Reduction Index (DRI) at IC95” value amounted to 1.46. Besides, under “panaxytriol + Fludelone combination, MX-1 cells”, the “dose-reduction index (DRI)” value is given as 1.46-2.7.
